Literature values as cited in US12357667B2, “Nutraceutical formulations to prevent, treat, and inhibit excess cytokines, SARS-CoV-2 spike proteins, and mRNA vaccine spike proteins” (priority 2021, dated 2025).

Assays:
[1] = system: variant spikes from the SARS-CoV-2 alpha and delta strains
[2] = system: SARS-CoV-2 alpha variant B.1.1.7 and the beta variant B.1.351; conditions: alpha variant B.1.1.7 and beta variant B.1.351

Structure (SMILES) | activity of variant spikes [1] | effectiveness against variants [2]
CC(=O)N[C@@H](CS)C(=O)O [N-acetylcysteine, reference compound] | suppressed | –
CCCCCc1cc(O)c(C/C=C(\C)CCC=C(C)C)c(O)c1C(=O)O [cannabigerolic acid] | – | equally effective
C=C(C)[C@@H]1CCC(C)=C[C@H]1c1c(O)cc(CCCCC)c(C(=O)O)c1O [cannabidiolic acid] | – | equally effective
N[C@@H](CCC(=O)N[C@@H](CS)C(=O)NCC(=O)O)C(=O)O [glutathione, γ-glutamyl cysteinyl glycine] | suppressed | –
